The assay has as its target human Gal-3 (hGal-3) (Homo sapiens (Human), UniProt P17931). As to the kind of experiment: Competitive binding assay: biotinylated hGal-3 binding to microplate-adsorbed asialofetuin (ASF). The settings on record: Activity on hGal-3; mean values of several measurements; mixture of diastereomers measured where not separated. The method, then: The inhibitory activity of compounds is determined in competitive binding assays. This spectrophotometric assay measures the binding of biotinylated human Gal-3 (hGal-3) or human Gal-1 (hGal-1), respectively, to a microplate-adsorbed glycoprotein, asialofetuin (ASF) (Proc Natl Acad Sci USA. 2013 Mar 26;110(13):5052-7.). Alternatively, and preferably, a human Gal-1 version in which all six cysteines are substituted by serines may be used.
Briefly, compounds are serially diluted in DMSO (working dilutions).
Plates are incubated for 3 hours at 4° C., then washed with cold assay buffer (3×50 uL), incubated for 1 hour with 25 μL/well of a streptavidin-peroxidase solution (diluted in assay buffer to 80 ng/mL) at 4° C., followed by further washing steps with assay buffer (3×50 uL). Finally, 25 μL/well of ABTS substrate is added.
The calculated IC50 values may fluctuate depending on the daily assay performance. Fluctuations of this kind are known to those skilled in the art. IC50 values from several measurements are given as mean values.
Sequence of human Gal-3 (hGal-3) (P17931 whole entry): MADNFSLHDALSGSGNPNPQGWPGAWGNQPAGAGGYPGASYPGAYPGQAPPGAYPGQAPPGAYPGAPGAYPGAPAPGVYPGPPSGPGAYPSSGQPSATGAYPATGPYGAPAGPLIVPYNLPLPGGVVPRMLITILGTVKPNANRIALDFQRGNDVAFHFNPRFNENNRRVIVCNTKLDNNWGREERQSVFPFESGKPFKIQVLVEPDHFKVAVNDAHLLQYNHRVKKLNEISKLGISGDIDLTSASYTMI
For `COc1cc(C#N)cc(N(C(=O)[C@@H]2O[C@H](CO)[C@H](O)[C@H](n3cc(-c4cc(F)c(F)c(F)c4)nn3)[C@H]2OC)[C@H]2COC[C@@H]2O)c1` [Example 9, (2R,3R,4S,5R,6R)-N-(3-cyano-5-methoxyphenyl)-5-hydroxy-6-(hydroxymethyl)-N-((3S,4R)-4-hydroxytetrahydrofuran-3-yl)-3-methoxy-4-(4-(3,4,5-trifluorophenyl)-1H-1,2,3-triazol-1-yl)tetrahydro-2H-pyran-2-carboxamide], the IC50 turned out to be 101 nM.

As to `CO[C@@H]1[C@@H](n2cc(-c3ccc(C)c(F)c3F)nn2)[C@@H](O)[C@@H](CO)O[C@H]1C(=O)N(c1cc(Cl)cc(Cl)c1)[C@@H]1COC[C@H]1O` [Example 48, (2R,3R,4S,5R,6R)-N-(3,5-dichlorophenyl)-4-(4-(2,3-difluoro-4-methylphenyl)-1H-1,2,3-triazol-1-yl)-5-hydroxy-6-(hydroxymethyl)-N-((3R,4S)-4-hydroxytetrahydrofuran-3-yl)-3-methoxytetrahydro-2H-pyran-2-carboxamide], the IC50 is 29 nM.

Consider `CO[C@@H]1[C@@H](n2cc(-c3cc(F)c(F)c(F)c3)nn2)[C@@H](O)[C@@H](CO)O[C@H]1C(=O)N(c1cc(Cl)cc(Cl)c1)[C@@H]1CNC[C@H]1O` [Example 66, (2R,3R,4S,5R,6R)-N-(3,5-dichlorophenyl)-5-hydroxy-6-(hydroxymethyl)-N-((3R,4R)-4-hydroxypyrrolidin-3-yl)-3-methoxy-4-(4-(3,4,5-trifluorophenyl)-1H-1,2,3-triazol-1-yl)tetrahydro-2H-pyran-2-carboxamide], for which the IC50 was 182 nM.

Consider `CO[C@@H]1[C@@H](n2cc(-c3ccc(Br)c(F)c3F)nn2)[C@@H](O)[C@@H](CO)O[C@H]1C(=O)N(c1cc(C)cc(Br)c1)[C@H]1COC[C@@H]1O` [Example 14, (2R,3R,4S,5R,6R)-4-(4-(4-bromo-2,3-difluorophenyl)-1H-1,2,3-triazol-1-yl)-N-(3-bromo-5-methylphenyl)-5-hydroxy-6-(hydroxymethyl)-N-((3S,4R)-4-hydroxytetrahydrofuran-3-yl)-3-methoxytetrahydro-2H-pyran-2-carboxamide], for which the IC50 turned out to be 46 nM.

Take `CO[C@@H]1[C@@H](n2cc(-c3cc(F)c(Cl)c(F)c3)nn2)[C@@H](O)[C@@H](CO)O[C@H]1C(=O)N(c1cc(C)cc(Br)c1)[C@@H]1COC[C@H]1O` [Example 54, (2R,3R,4S,5R,6R)-N-(3-bromo-5-methylphenyl)-4-(4-(4-chloro-3,5-difluorophenyl)-1H-1,2,3-triazol-1-yl)-5-hydroxy-6-(hydroxymethyl)-N-((3R,4S)-4-hydroxytetrahydrofuran-3-yl)-3-methoxytetrahydro-2H-pyran-2-carboxamide]: the IC50 was determined as 89 nM.

On to `CO[C@@H]1[C@@H](n2cc(-c3cc(F)c(Cl)c(F)c3)nn2)[C@@H](O)[C@@H](CO)O[C@H]1C(=O)N(c1cc(Cl)cc(Cl)c1)[C@H]1COC[C@@H]1O` [Example 22, (2R,3R,4S,5R,6R)-4-(4-(4-chloro-3,5-difluorophenyl)-1H-1,2,3-triazol-1-yl)-N-(3,5-dichlorophenyl)-5-hydroxy-6-(hydroxymethyl)-N-((3S,4R)-4-hydroxytetrahydrofuran-3-yl)-3-methoxytetrahydro-2H-pyran-2-carboxamide], for which the IC50 was determined as 50 nM.

For the molecule `CO[C@@H]1[C@@H](n2cc(-c3ccc(C)c(F)c3F)nn2)[C@@H](O)[C@@H](CO)O[C@H]1C(=O)N(c1cc(C)cc(Br)c1)[C@H]1COC[C@@H]1O` [Example 21, (2R,3R,4S,5R,6R)-N-(3-bromo-5-methylphenyl)-4-(4-(2,3-difluoro-4-methylphenyl)-1H-1,2,3-triazol-1-yl)-5-hydroxy-6-(hydroxymethyl)-N-((3S,4R)-4-hydroxytetrahydrofuran-3-yl)-3-methoxytetrahydro-2H-pyran-2-carboxamide], the IC50 was 35 nM.

On to `CO[C@@H]1[C@@H](n2cc(-c3ccc(Br)c(F)c3F)nn2)[C@@H](O)[C@@H](CO)O[C@H]1C(=O)N(c1cc(Br)cc(C#N)c1)[C@H]1COC[C@@H]1O` [Example 13, (2R,3R,4S,5R,6R)-4-(4-(4-bromo-2,3-difluorophenyl)-1H-1,2,3-triazol-1-yl)-N-(3-bromo-5-cyanophenyl)-5-hydroxy-6-(hydroxymethyl)-N-((3S,4R)-4-hydroxytetrahydrofuran-3-yl)-3-methoxytetrahydro-2H-pyran-2-carboxamide], for which the IC50 amounted to 15 nM.

For `CO[C@@H]1[C@@H](n2cc(-c3cc(F)c(C)c(F)c3)nn2)[C@@H](O)[C@@H](CO)O[C@H]1C(=O)N(c1cc(Br)cc(Br)c1)[C@H]1CN(C(C)=O)C[C@@H]1O` [Example 74, (2R,3R,4S,5R,6R)-N-((3S,4S)-1-acetyl-4-hydroxypyrrolidin-3-yl)-N-(3,5-dibromophenyl)-4-(4-(3,5-difluoro-4-methylphenyl)-1H-1,2,3-triazol-1-yl)-5-hydroxy-6-(hydroxymethyl)-3-methoxytetrahydro-2H-pyran-2-carboxamide], the IC50 was determined as 27 nM.

Consider `CO[C@@H]1[C@@H](n2cc(-c3cc(F)c(C)c(F)c3)nn2)[C@@H](O)[C@@H](CO)O[C@H]1C(=O)N(c1cc(C)cc(Br)c1)[C@@H]1CN(C(C)=O)C[C@H]1O` [Example 82, (2R,3R,4S,5R,6R)-N-((3R,4R)-1-acetyl-4-hydroxypyrrolidin-3-yl)-N-(3-bromo-5-methylphenyl)-4-(4-(3,5-difluoro-4-methylphenyl)-1H-1,2,3-triazol-1-yl)-5-hydroxy-6-(hydroxymethyl)-3-methoxytetrahydro-2H-pyran-2-carboxamide], for which the IC50 is 45 nM.

`CO[C@@H]1[C@@H](n2cc(-c3cc(F)c(F)c(F)c3)nn2)[C@@H](O)[C@@H](CO)O[C@H]1C(=O)N(c1cc(Br)cc(C#N)c1)[C@H]1CN(C=O)C[C@@H]1O` [Example 89, (2R,3R,4S,5R,6R)-N-(3-bromo-5-cyanophenyl)-N-((3S,4S)-1-formyl-4-hydroxypyrrolidin-3-yl)-5-hydroxy-6-(hydroxymethyl)-3-methoxy-4-(4-(3,4,5-trifluorophenyl)-1H-1,2,3-triazol-1-yl)tetrahydro-2H-pyran-2-carboxamide]: the IC50 stood at 38 nM.

As to `CO[C@@H]1[C@@H](n2cc(-c3cc(F)c(F)c(F)c3)nn2)[C@@H](O)[C@@H](CO)O[C@H]1C(=O)N(c1cc(C)cc(Br)c1)[C@@H]1COCC[C@H]1O` [Example 108, (2R,3R,4S,5R,6R)-N-(3-bromo-5-methylphenyl)-5-hydroxy-6-(hydroxymethyl)-N-((3R,4R)-4-hydroxytetrahydro-2H-pyran-3-yl)-3-methoxy-4-(4-(3,4,5-trifluorophenyl)-1H-1,2,3-triazol-1-yl)tetrahydro-2H-pyran-2-carboxamide], the IC50 is 315 nM.

Consider `CO[C@@H]1[C@@H](n2cc(-c3cc(F)c(F)c(F)c3)nn2)[C@@H](O)[C@@H](CO)O[C@H]1C(=O)N(c1cc(C)cc(Br)c1)[C@H]1CN(C)C[C@@H]1O` [Example 96, (2R,3R,4S,5R,6R)-N-(3-bromo-5-methylphenyl)-5-hydroxy-N-((3S,4S)-4-hydroxy-1-methylpyrrolidin-3-yl)-6-(hydroxymethyl)-3-methoxy-4-(4-(3,4,5-trifluorophenyl)-1H-1,2,3-triazol-1-yl)tetrahydro-2H-pyran-2-carboxamide], for which the IC50 amounted to 51 nM.

(Values after patent US20240124427A1, “HYDROXYHETEROCYCLOALKANE-CARBAMOYL DERIVATIVES” (Idorsia Pharmaceuticals Ltd, priority 2021, published 2024).)
